The target of experiment [1] is T1, A1 receptor (Homo sapiens, UniProt P30542).
T1 sequence (P30542 1-326): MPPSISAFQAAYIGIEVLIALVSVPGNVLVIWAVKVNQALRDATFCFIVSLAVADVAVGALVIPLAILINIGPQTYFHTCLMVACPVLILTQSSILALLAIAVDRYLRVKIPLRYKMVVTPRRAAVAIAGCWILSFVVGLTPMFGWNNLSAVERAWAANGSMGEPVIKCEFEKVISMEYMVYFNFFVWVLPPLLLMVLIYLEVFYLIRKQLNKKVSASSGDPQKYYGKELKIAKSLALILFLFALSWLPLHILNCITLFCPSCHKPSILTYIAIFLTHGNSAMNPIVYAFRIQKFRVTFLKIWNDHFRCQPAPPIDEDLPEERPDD
Briefly: Human adenosine A1 receptor competition binding assay (for selectivity). The note with it: A1/A2a Ki ratio. As to the method:
(§1) Human Adenosine A2a and A1 Receitor Competition Binding Assay Protocol Membrane Sources:
(§2) Membrane dilution buffer: Dulbecco's Phosphate Buffered Saline (Gibco/BRL)+10 mM MgCl2.
(§3) Compound Dilution Buffer: Dulbecco's Phosphate Buffered Saline (Gibco/BRL)+10 mM MgCl2 supplemented with 1.6 mg/ml methyl cellulose and 16% DMSO. Prepared fresh daily.
A1: [3H]-DPCPX, Amersham Pharmacia Biotech, Piscataway, N.J. Stock is prepared at 2 nM in membrane dilution buffer. Final assay concentration is 1 nM.
A1: To determine non-specific binding, add 100 μM NECA (RBI, Natick, Mass.). Working stock is prepared at 400 μM in compound dilution buffer.
(§4) Prepare 1 mM stock solutions of compounds in 100% DMSO. Dilute in compound dilution buffer. Test at 10 concentrations ranging from 3 μM to 30 pM. Prepare working solutions at 4× final concentration in compound dilution buffer.
Perform assays in deep well 96 well plates. Total assay volume is 200 μl. Add 50 μl compound dilution buffer (total ligand binding) or 50 μl CGS 15923 working solution (A2a non-specific binding) or 50 μl NECA working solution (A1 non-specific binding) or 50 μl of drug working solution. Add 50 μl ligand stock ([3H]-SCH 58261 for A2a, [3H]-DPCPX for A1). Add 100 μl of diluted membranes containing the appropriate receptor. Mix. Incubate at room temperature for 90 minutes. […]
Selectivity is determined by dividing Ki for A1 receptor by Ki for A2a receptor. […]

The target of experiment [2] is T2, Human A2a Adenosine Receptor (Homo sapiens, UniProt P29274).
T2 construct: purchased Receptor Biology, Inc., Beltsville, Md; RB-HA2a
The experiment is described as follows: Human adenosine A2a receptor competition binding assay. The note with it: [3H]-SCH 58261 displacement, human A2a membranes. As to the method: as §1
A2a: Human A2a Adenosine Receptor membranes, Catalog #RB-HA2a, Receptor Biology, Inc., Beltsville, Md. Dilute to 17 μg/100 μl in membrane dilution buffer (see below).
as §2, §3
A2a: [3H]-SCH 58261, custom synthesis, AmershamPharmacia Biotech, Piscataway, N.J. Stock is prepared at 1 nM in membrane dilution buffer. Final assay concentration is 0.5 nM.
A2a: To determine non-specific binding, add 100 nM CGS 15923 (RBI, Natick, Mass.). Working stock is prepared at 400 nM in compound dilution buffer.
as §4
Perform assays in deep well 96 well plates. Total assay volume is 200 μl. Add 50 μl compound dilution buffer (total ligand binding) or 50 μl CGS 15923 working solution (A2a non-specific binding) or 50 μl NECA working solution (A1 non-specific binding) or 50 μl of drug working solution. Add 50 μl ligand stock ([3H]-SCH 58261 for A2a, [3H]-DPCPX for A1). […]

T2 sequence (P29274 whole entry): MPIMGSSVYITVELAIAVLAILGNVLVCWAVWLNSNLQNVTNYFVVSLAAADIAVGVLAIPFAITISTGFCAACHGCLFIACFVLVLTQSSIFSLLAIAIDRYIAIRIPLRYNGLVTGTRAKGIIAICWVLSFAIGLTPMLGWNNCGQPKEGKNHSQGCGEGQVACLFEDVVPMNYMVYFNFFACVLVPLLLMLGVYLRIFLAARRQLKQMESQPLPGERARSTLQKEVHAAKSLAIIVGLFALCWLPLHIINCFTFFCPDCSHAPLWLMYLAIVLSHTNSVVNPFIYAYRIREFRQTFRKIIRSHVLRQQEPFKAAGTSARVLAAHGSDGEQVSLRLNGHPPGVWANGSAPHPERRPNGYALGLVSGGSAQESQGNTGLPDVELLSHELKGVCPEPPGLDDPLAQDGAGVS

On to `Cc1nccnc1-c1nc2c3cnn(CCN4CCN(c5cc(-c6ncco6)ccc5F)CC4)c3nc(N)n2n1` [Example 2-28], for which the “selectivity (Ki for A1 receptor divided by Ki for A2a receptor)” value in experiment [1] is “above 9000”.
Broadly, the Ki is the dissociation constant of the complex between target and ligand, obtained from inhibition or displacement. A higher Ki goes with lower affinity. Take `Cc1nc(-c2ccc(F)c(N3CCN(CCn4ncc5c4nc(N)n4nc(-c6cnccn6)nc54)CC3)c2)co1` [Example 1]: the affinity in experiment [2] corresponds to a Ki of 0.2 nM.
